Data as given in PubChem BioAssay (NCI).
Where “and” joins values, the source holds several entries; their conditions need not be identical. Equal entries are not always repeated.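 Compound exposure: 48 hours, 5 concentrations, 96-well plates. GI50 is the concentration that inhibits growth by half. TGI is the concentration that stops growth completely.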

How the values were obtained:
Test in all cases: inhibition of tumour cell growth, NCI panel, 48 h
RPMI-8226 leukemia = test system: RPMI-8226 leukemia
OVCAR-3 ovarian = test system: OVCAR-3 ovarian
UACC-257 melanoma = test system: UACC-257 melanoma
PC-3 prostate = test system: PC-3 prostate
HT29 colon = test system: HT29 colon
MOLT-4 leukemia = test system: MOLT-4 leukemia
NCI/ADR-RES ovarian = test system: NCI/ADR-RES ovarian
ACHN renal = test system: ACHN renal
RXF 393 renal = test system: RXF 393 renal
SF-295 CNS = test system: SF-295 CNS

| SMILES | GI50 (RPMI-8226 leukemia) | TGI (RPMI-8226 leukemia) | GI50 (OVCAR-3 ovarian) | TGI (OVCAR-3 ovarian) | GI50 (UACC-257 melanoma) | TGI (UACC-257 melanoma) | GI50 (PC-3 prostate) | TGI (PC-3 prostate) | GI50 (HT29 colon) | TGI (HT29 colon) | GI50 (MOLT-4 leukemia) | TGI (MOLT-4 leukemia) | GI50 (NCI/ADR-RES ovarian) | TGI (NCI/ADR-RES ovarian) | GI50 (ACHN renal) | TGI (ACHN renal) | GI50 (RXF 393 renal) | TGI (RXF 393 renal) | GI50 (SF-295 CNS) | TGI (SF-295 CNS) |
| --- | --- | --- | --- | --- | --- | --- | --- | --- | --- | --- | --- | --- | --- | --- | --- | --- | --- | --- | --- | --- |
| COc1ccc(Cl)cc1Nc1nc(C(F)(F)F)ccc1C(=O)N/N=C/c1ccc(Cl)cc1 | 3.5 µM | > 100 µM | 0.576 µM | 1.66 µM | 7.91 µM | > 100 µM | > 100 µM | > 100 µM | 7.4 µM | > 100 µM | 1.76 µM | 11.1 µM | 6.35 µM | > 100 µM | 6.4 µM | 66.2 µM | 4.56 µM | 53.2 µM | 2.09 µM | 12.1 µM |
| CC(C)c1nc(Cl)c(Cl)c(Cl)n1 |  | 14.7 µM |  | 8.2 µM |  | 17.8 µM |  | 17.7 µM |  | 17.9 µM |  | 11.4 µM |  | 55.8 µM |  | 2.51 µM |  | 7.97 µM |  | 29 µM |
| COc1ccc(C[C@H](N)C(=O)N[C@@H]2[C@@H](CO)OC(n3cnc4c(N(C)C)ncnc43)[C@@H]2O)cc1 (some centres not stated) | 0.292 µM | 2.04 µM |  | 0.535 µM | 0.321 µM | 1.08 µM | 0.311 µM | 1.73 µM |  | 1.38 µM | 0.275 µM | 1.77 µM | 42.7 µM | 50 µM |  | 3.19 µM | 0.216 µM | 0.831 µM | 0.655 µM | 2.21 µM |
| CCC(=C(c1ccc(OCCN(CC)CC)cc1)c1ccc(OCCN(CC)CC)cc1)c1ccc(Cl)cc1 | 0.714 µM | 1.64 µM | 0.577 µM | 1.14 µM | 0.62 µM | 1.25 µM | 0.581 µM | 1.24 µM | 0.51 µM | 1.15 µM | 0.583 µM | 1.3 µM | 0.625 µM | 1.21 µM | 0.596 µM | 1.08 µM | 0.485 µM | 0.962 µM | 0.615 µM | 1.19 µM |
| Brc1ccc2c(c1)-c1ccccc1C1=NCCN12 | 1.71 µM | 4.95 µM | 2.08 µM | 8.04 µM | 1.59 µM | 4.51 µM | 0.763 µM | 11 µM | 0.478 µM | 3.33 µM | 0.419 µM | 3.73 µM | 0.897 µM | 26.7 µM | 0.519 µM | 12.4 µM | 1.29 µM | 3.23 µM | 0.984 µM | 4 µM |
| COc1cccc2c(Nc3ccc(C(=O)NCCN4CCNCC4)cc3)cc(-c3ccccc3)nc12 | 18 µM | 44.3 µM | > 100 µM | > 100 µM | > 100 µM | > 100 µM | 25.8 µM | > 100 µM | 20.7 µM | > 100 µM | 30.6 µM | > 100 µM | > 100 µM | > 100 µM | 18.8 µM | 40.8 µM | > 100 µM | > 100 µM | 33.1 µM | > 100 µM |
| CS(=O)(=O)Nc1ccc(Nc2c3ccccc3nc3cc(Cl)ccc23)cc1 | 2.56 µM | 25.6 µM | 7.28 µM | 21.5 µM | 3.33 µM | 16.7 µM | 2.47 µM | 19.4 µM | 2.57 µM | 14.1 µM | 0.214 µM | 16.2 µM | 3.93 µM | 37.5 µM | 0.343 µM | 9.57 µM | 1.77 µM | 10.6 µM | 1.07 µM | 15.3 µM |
| Oc1ccc(/C=N/Nc2nnc(N/N=C/c3ccc(O)cc3O)c3ccccc23)c(O)c1 | 0.345 µM | 0.533 µM and 1.77 µM | 0.385 µM | 0.489 µM and 1.9 µM | 1.84 µM | 7.73 µM |  | 8.82 µM | 1.76 µM | 7.2 µM | 0.432 µM |  |  | 12.5 µM | 0.358 µM | 0.422 µM and 3.94 µM | 0.519 µM | 2.4 µM | 0.173 µM | 0.813 µM and 0.597 µM |
| ClCc1ccc(Cn2cnc3nc(Cl)nc(Cl)c32)cc1 | 1.68 µM | 28.3 µM | 0.687 µM | 1.45 µM | 1.95 µM | 4.33 µM | 2.9 µM | 7.98 µM | 0.97 µM |  | 1.68 µM | 5.26 µM | 1.77 µM | 3.36 µM | 0.523 µM | 0.953 µM | 1.3 µM | 3.24 µM | 1.75 µM | 3.27 µM |
| Cc1ccc(S(=O)(=O)NCc2cccc([N+](=O)[O-])c2)cc1 |  | > 100 µM |  | > 100 µM |  | > 100 µM |  | > 100 µM |  | > 100 µM |  | > 100 µM |  | > 100 µM |  | > 100 µM |  | > 100 µM |  | > 100 µM |
| OCCn1c(-c2ccncc2)c(-c2ccc(F)cc2)c2ncccc21 | > 25 µM | > 25 µM | > 25 µM | > 25 µM | > 25 µM | > 25 µM | > 25 µM | > 25 µM | > 25 µM | > 25 µM | > 25 µM | > 25 µM | > 25 µM | > 25 µM | 24.8 µM | > 25 µM | > 25 µM | > 25 µM | > 25 µM | > 25 µM |
| Cc1c(-c2ccc(N3CCc4cccc(C(=O)Nc5nc6ccccc6s5)c4C3)nc2C(=O)O)cnn1CC12CC3CC(CC(C3)C1)C2 | < 0.0177 µM | 2.86 µM | 6.19 µM | 20.9 µM | 10.5 µM | 30.2 µM | 1.42 µM | 6.15 µM | 7.79 µM | 25.3 µM | < 0.01 µM |  | 14.7 µM | 38 µM | 4.83 µM | 18.5 µM | 0.0853 µM | 4.61 µM | 3.53 µM | 11.6 µM |
| O=C(Nc1cccc(C(F)(F)F)c1)Nc1cc(S(=O)(=O)NC2CC2)ccc1-c1ccsc1 | 2.57 µM | 8.22 µM | 4.02 µM | 14.9 µM | 3.84 µM | 14.4 µM | 3.4 µM | 18.6 µM | 4.25 µM | 16.1 µM | 3.02 µM | 9.53 µM | 6.05 µM | 26.9 µM | 1.83 µM | 3.61 µM | 4.98 µM | 18.8 µM | 3.16 µM | 11.8 µM |
